Measurements as given in patent publication US20030118577A1, “Use of analogues of superoxide dismutase for treating hepatocellular insufficiencies” (priority 2000, published 2003).

Tests used:
[1] = test system: acute hepatic insufficiency induced by acetaminophen; experiment: Survival of mice after intraperitoneal acetaminophen (acute hepatic insufficiency)
Method: The intraperitoneal injection of acetaminophen into mice induces a severe hepatotoxicity, the degree of which may be evaluated by the survival of the animals, measuring transaminase activities, and macroscopic and microscopic examination of the livers.
The acetaminophen in solution at 100 mg/ml in PBS at pH 7.4 is administered by the intraperitoneal route.
In a first series of experiments, a group of mice received a dose of 1000 mg/kg of acetaminophen; a second group received a dose of 1000 mg/kg of acetaminophen and a dose of 10 mg/kg of MnTBAP administered either 2 h before the acetaminophen or 6 h after; a control group received either MnTBAP alone (10 mg/kg), or PBS alone.
The survival of the animals is monitored for 24 hours after the administration of acetaminophen.
The effect of N-acetyl-L-cysteine (NAC), of CuDIPS, and of MnTBAP on the survival of mice after intraperitoneal injection of 1000 mg/kg of acetaminophen (APAP) was compared.
MnTBAP, NAC, or CuDIPS are administered in the form of a bolus, preventively, 2 hours before (P) or, curatively, 6 hours after (C) the acetaminophen.
The survival of the animals is monitored for 24 hours after administration of acetaminophen.

[2] = test system: acute hepatic insufficiency induced by acetaminophen; experiment: Histological study of livers after acetaminophen; assay type: in vivo; conditions: mice which received acetaminophen, treated with MnTBAP
From the text: In each of the groups, the livers of several animals were removed, in order to carry out a histological study.

[3] = test system: acute hepatic insufficiency induced by acetaminophen; experiment: Assay of serum transaminases ALAT and ASAT after acetaminophen; assay type: in vivo, mice; conditions: MnTBAP 10 mg/kg 2 h before, after 24 hours
Method: The serum transaminases ALAT and ASAT are assayed 12 hours and 24 hours after the administration of acetaminophen.
Since the results risked being biased by the fact that the mice surviving 24 hours after the administration of acetaminophen were probably, regardless of the group involved, those which had the lowest transaminase activity, a second series of experiments were carried out, administering 500 mg/kg of acetaminophen, the other experimental conditions remaining the same. At this dosage, all the mice were still alive after 24 hours.
The results are illustrated by FIGS. 2A and 2B, which represent the ASAT and ALAT activity, respectively, according to the products administered.

[4] = Glutathione peroxidase activity of the mimetic; assay type: biochemical; conditions: observed by the inventors

O=C(O)c1ccc(-c2c3nc(c(-c4ccc(C(=O)O)cc4)c4ccc([n-]4)c(-c4ccc(C(=O)O)cc4)c4nc(c(-c5ccc(C(=O)O)cc5)c5ccc2[n-]5)C=C4)C=C3)cc1.[Mn+3] [MnTBAP, Mn(III) tetrakis(5,10,15,20-benzoic acid)porphyrin]
percentage of surviving animals ([1]; Group V: APAP 1000 mg/kg, MnTBAP 10 mg/kg (P), time 22 h): 65.7% | percentage of surviving animals ([1]; Group V: APAP 1000 mg/kg, MnTBAP 10 mg/kg (P), time 24 h): 62.9% | percentage of surviving animals ([1]; Group VI: APAP 1000 mg/kg, MnTBAP 20 mg/kg (P), time 0 h): 100% | percentage of surviving animals ([1]; Group VI: APAP 1000 mg/kg, MnTBAP 20 mg/kg (P), time 6 h): 100% | percentage of surviving animals ([1]; Group VI: APAP 1000 mg/kg, MnTBAP 20 mg/kg (P), time 8 h): 100% | percentage of surviving animals ([1]; Group VI: APAP 1000 mg/kg, MnTBAP 20 mg/kg (P), time 9 h): 100% | percentage of surviving animals ([1]; Group VI: APAP 1000 mg/kg, MnTBAP 20 mg/kg (P), time 10 h): 100% | percentage of surviving animals ([1]; Group VI: APAP 1000 mg/kg, MnTBAP 20 mg/kg (P), time 11 h): 100% | percentage of surviving animals ([1]; Group VI: APAP 1000 mg/kg, MnTBAP 20 mg/kg (P), time 12 h): 100% | percentage of surviving animals ([1]; Group VI: APAP 1000 mg/kg, MnTBAP 20 mg/kg (P), time 13 h): 100% | percentage of surviving animals ([1]; Group VI: APAP 1000 mg/kg, MnTBAP 20 mg/kg (P), time 14 h): 100% | percentage of surviving animals ([1]; Group VI: APAP 1000 mg/kg, MnTBAP 20 mg/kg (P), time 15 h): 90% | percentage of surviving animals ([1]; Group VI: APAP 1000 mg/kg, MnTBAP 20 mg/kg (P), time 16 h): 90% | percentage of surviving animals ([1]; Group VI: APAP 1000 mg/kg, MnTBAP 20 mg/kg (P), time 17 h): 90% | percentage of surviving animals ([1]; Group VI: APAP 1000 mg/kg, MnTBAP 20 mg/kg (P), time 18 h): 90% | percentage of surviving animals ([1]; Group VI: APAP 1000 mg/kg, MnTBAP 20 mg/kg (P), time 20 h): 90% | percentage of surviving animals ([1]; Group VI: APAP 1000 mg/kg, MnTBAP 20 mg/kg (P), time 22 h): 90% | percentage of surviving animals ([1]; Group VI: APAP 1000 mg/kg, MnTBAP 20 mg/kg (P), time 24 h): 90% | percentage of surviving animals ([1]; Group VII: APAP 1000 mg/kg, MnTBAP 10 mg/kg (C), time 0 h): 100% | percentage of surviving animals ([1]; Group VII: APAP 1000 mg/kg, MnTBAP 10 mg/kg (C), time 6 h): 100% | percentage of surviving animals ([1]; Group VII: APAP 1000 mg/kg, MnTBAP 10 mg/kg (C), time 8 h): 100% | percentage of surviving animals ([1]; Group VII: APAP 1000 mg/kg, MnTBAP 10 mg/kg (C), time 9 h): 100% | percentage of surviving animals ([1]; Group VII: APAP 1000 mg/kg, MnTBAP 10 mg/kg (C), time 10 h): 94% | percentage of surviving animals ([1]; Group VII: APAP 1000 mg/kg, MnTBAP 10 mg/kg (C), time 11 h): 94% | percentage of surviving animals ([1]; Group VII: APAP 1000 mg/kg, MnTBAP 10 mg/kg (C), time 12 h): 81% | percentage of surviving animals ([1]; Group VII: APAP 1000 mg/kg, MnTBAP 10 mg/kg (C), time 13 h): 69% | percentage of surviving animals ([1]; Group VII: APAP 1000 mg/kg, MnTBAP 10 mg/kg (C), time 14 h): 69% | percentage of surviving animals ([1]; Group VII: APAP 1000 mg/kg, MnTBAP 10 mg/kg (C), time 15 h): 69% | percentage of surviving animals ([1]; Group VII: APAP 1000 mg/kg, MnTBAP 10 mg/kg (C), time 16 h): 56% | percentage of surviving animals ([1]; Group VII: APAP 1000 mg/kg, MnTBAP 10 mg/kg (C), time 17 h): 56% | percentage of surviving animals ([1]; Group VII: APAP 1000 mg/kg, MnTBAP 10 mg/kg (C), time 18 h): 56% | percentage of surviving animals ([1]; Group VII: APAP 1000 mg/kg, MnTBAP 10 mg/kg (C), time 20 h): 56% | percentage of surviving animals ([1]; Group VII: APAP 1000 mg/kg, MnTBAP 10 mg/kg (C), time 22 h): 56% | percentage of surviving animals ([1]; Group VII: APAP 1000 mg/kg, MnTBAP 10 mg/kg (C), time 24 h): 44% | percentage of surviving animals ([1]; Group VIII: APAP 1000 mg/kg, MnTBAP 20 mg/kg (C), time 0 h): 100% | percentage of surviving animals ([1]; Group VIII: APAP 1000 mg/kg, MnTBAP 20 mg/kg (C), time 6 h): 100% | percentage of surviving animals ([1]; Group VIII: APAP 1000 mg/kg, MnTBAP 20 mg/kg (C), time 8 h): 100% | percentage of surviving animals ([1]; Group VIII: APAP 1000 mg/kg, MnTBAP 20 mg/kg (C), time 9 h): 100% | percentage of surviving animals ([1]; Group VIII: APAP 1000 mg/kg, MnTBAP 20 mg/kg (C), time 10 h): 100% | percentage of surviving animals ([1]; Group VIII: APAP 1000 mg/kg, MnTBAP 20 mg/kg (C), time 11 h): 100% | percentage of surviving animals ([1]; Group VIII: APAP 1000 mg/kg, MnTBAP 20 mg/kg (C), time 12 h): 90% | percentage of surviving animals ([1]; Group VIII: APAP 1000 mg/kg, MnTBAP 20 mg/kg (C), time 13 h): 90% | percentage of surviving animals ([1]; Group VIII: APAP 1000 mg/kg, MnTBAP 20 mg/kg (C), time 14 h): 90% | percentage of surviving animals ([1]; Group VIII: APAP 1000 mg/kg, MnTBAP 20 mg/kg (C), time 15 h): 90% | percentage of surviving animals ([1]; Group VIII: APAP 1000 mg/kg, MnTBAP 20 mg/kg (C), time 16 h): 90% | percentage of surviving animals ([1]; Group VIII: APAP 1000 mg/kg, MnTBAP 20 mg/kg (C), time 17 h): 80% | percentage of surviving animals ([1]; Group VIII: APAP 1000 mg/kg, MnTBAP 20 mg/kg (C), time 18 h): 80% | percentage of surviving animals ([1]; Group VIII: APAP 1000 mg/kg, MnTBAP 20 mg/kg (C), time 20 h): 70% | percentage of surviving animals ([1]; Group VIII: APAP 1000 mg/kg, MnTBAP 20 mg/kg (C), time 22 h): 70% | percentage of surviving animals ([1]; Group VIII: APAP 1000 mg/kg, MnTBAP 20 mg/kg (C), time 24 h): 70% | death of animals ([1]; MnTBAP alone 10 mg/kg ip, no acetaminophen, 24 hours): No death | apoptotic lesions in liver, versus untreated animals [2]: a lot fewer apoptotic lesions | transaminase activities (ASAT, ALAT), fold lower than without MnTBAP ([3]; acetaminophen 500 mg/kg (APAP500)): 10 fold | transaminase activities (ASAT, ALAT), fold lower than without MnTBAP ([3]; acetaminophen 1000 mg/kg (APAP1000)): 6 fold | glutathione peroxidase activity [4]: possessed, in addition, a glutathione peroxidase activity
